Converted amounts (≈) assume the structure as drawn. Where a name gives a salt, the structure may show the parent alone. Read-outs that look alike come from different tables or passages of the source.
Tested on: wild-type M. tuberculosis
Test: microbe, parasite or virus in culture
Format: cell-based, Mycobacterium tuberculosis
[1] = Mycobacterium tuberculosis, 120 h, read-out: MIC
[2] = Mycobacterium tuberculosis, read-out: MIC

Molecule `Cc1nc(-c2ccccn2)nc(NCCNc2ccc(C(F)(F)F)cn2)c1Cl` [APDP-2] has an IC90 (Mycobacterium tuberculosis) of 33 µM.
Molecule `Cc1nc(-c2ccccn2)nc(NCc2ccccc2)c1Cl` [APDP-3] has an IC90 (Mycobacterium tuberculosis) of 6.3 µM.
Molecule `CC1C(CNC(=O)Nc2ccccc2)CC2CC1C2(C)C` (centres unmarked) [HBU-2] has an IC90 (Mycobacterium tuberculosis) of 4.9 µM.
In the case of `CC(=O)c1ccc(NC(=O)NC(C)C23CC4CC(CC(C4)C2)C3)cc1` (centres unmarked) [HBU-3], the IC90 (Mycobacterium tuberculosis) is reported as 29 µM.
`O=C(NCCc1ccc(Br)cc1)NC12CC3CC(CC(C3)C1)C2` [HBU-4] was tested, and the IC90 (Mycobacterium tuberculosis) was 12 µM.
Work on `CC(NC(=O)Nc1nc(-c2ccc(Cl)cc2)cs1)C1CC2C=CC1C2` (centres unmarked) [HBU-5] yielded an IC90 (Mycobacterium tuberculosis) of 13 µM.
With `CCC1(N2CCC(c3ccc(C(C)(C)C)cc3)CC2)CCCCC1` [Molecule 4PP-2, 4-(4-tert-Butyl-phenyl)-1-(1-ethyl-cyclohexyl)-piperidine] the MIC [1] was 2 ± 0.5 µM (≈ 0.655 µg/mL) and the MIC [2] was 2 µM (≈ 0.655 µg/mL).
`CC(C)(C)c1ccc(C2CCN(CC3CCCCC3)CC2)cc1` [Molecule 4PP-3, 4-(4-t-Butylphenyl)-1-(cyclohexylmethyl)piperidine; 2,2,2-trifluoroacetic acid] gave an MIC [1] of 6.8 ± 0.9 µM (≈ 2.13 µg/mL) and an MIC [2] of 6.8 µM (≈ 2.13 µg/mL).
Molecule `c1ccc(C2CCN(CC3CCCCC3)CC2)cc1` [Molecule 4PP-4, 1-Cyclohexylmethyl-4-phenyl-piperidine] has an MIC [1] of 21 ± 9 µM (≈ 5.41 µg/mL) and an MIC [2] of 21 µM (≈ 5.41 µg/mL).
For `CC(C)(C)c1ccc(C2CCN(S(=O)(=O)C3CCCCC3)CC2)cc1` [Molecule 4PP-5, 4-(4-(t-Butyl)phenyl)-1-(cyclohexylsulfonyl)piperidine], the “anti-tubercular activity (in words)” value was “lost whole-cell activity” and the MIC [1] was > 20 µM.
`CC(C)(C)c1ccc(C2CCN(C(=O)C3CCCCC3)CC2)cc1` [Molecule 4PP-6, (4-(4-(t-Butyl)phenyl)piperidin-1-yl)(cyclohexyl)methanone] was tested, and the “anti-tubercular activity (in words)” value was “lost whole-cell activity” and the MIC [1] was > 20 µM.
In the case of `CC(C)(C)NC(=O)N1CCC(c2ccc(C(C)(C)C)cc2)CC1` [Molecule 4PP-7, N-(t-Butyl)-4-(4-(tert-butyl)phenyl)piperidine-1-carboxamide], the “anti-tubercular activity (in words)” value is reported as “loss of activity” and the MIC [1] is reported as > 20 µM.
With `CC(C)(C)c1ccc(C2CCN(C(=O)N3CCCCC3)CC2)cc1` [Molecule 4PP-8, (4-(4-(t-Butyl)phenyl)piperidin-1-yl)(piperidin-1-yl)methanone] the “anti-tubercular activity (in words)” value was “loss of activity” and the MIC [1] was > 20 µM.
With `O=S(=O)(C1CCCCC1)N1CCC(c2ccccc2)CC1` [Molecule 4PP-9, 1-(Cyclohexylsulfonyl)-4-phenylpiperidine] the “anti-tubercular activity (in words)” value was “lost activity” and the MIC [1] was > 20 µM.
In the case of `O=C(C1CCCCC1)N1CCC(c2ccccc2)CC1` [Molecule 4PP-10, Cyclohexyl(4-phenylpiperidin-1-yl) methanone], the “anti-tubercular activity (in words)” value is reported as “lost activity” and the MIC [1] is reported as > 20 µM.
For `CC(C)(C)NC(=O)N1CCC(c2ccccc2)CC1` [Molecule 4PP-11, N-(tert-butyl)-4-phenylpiperidine-1-carboxamide], the “anti-tubercular activity (in words)” value was “lost activity” and the MIC [1] was > 20 µM.
`O=C(N1CCCCC1)N1CCC(c2ccccc2)CC1` [Molecule 4PP-12, (4-Phenylpiperidin-1-yl)(piperidin-1-yl)methanone] was tested, and the “anti-tubercular activity (in words)” value was “lost activity” and the MIC [1] was > 20 µM.
For `O=C(NC1CCCCC1)N1CCC(c2ccccc2)CC1` [Molecule 4PP-13, N-cyclohexyl-4-phenylpiperidine-1-carboxamide], the “anti-tubercular activity (in words)” value was “did not furnish activity” and the MIC [1] was > 20 µM.
`CC(C)(C)CC(=O)N1CCC(c2ccccc2)CC1` [Molecule 4PP-14, 3,3-Dimethyl-1-(4-phenylpiperidin-1-yl)butan-1-one] was tested, and the “anti-tubercular activity (in words)” value was “did not furnish activity” and the MIC [1] was > 20 µM.
`CC(C)(C)c1ccc(C2CCN(C3CCCCC3)CC2)cc1` [Molecule 4PP-16, 4-(4-t-Butyl-phenyl)-1-cyclohexyl-piperidine, hydrochloride] gave an MIC [1] of 2.7 ± 0.8 µM and an MIC [2] of 2.7 µM.
`CN(C)C1CCC(N2CCC(c3ccc(C(C)(C)C)cc3)CC2)CC1` (centres unmarked) [Molecule 4PP-17, 4-(4-(4-(t-Butyl)phenyl)piperidin-1-yl)-N,N-dimethylcyclohexan-1-amine] was tested, and the “anti-tubercular activity (in words)” value was “detrimental to the activity” and the MIC [1] was > 20 µM.
With `COC(=O)C1CCC(N2CCC(c3ccc(C(C)(C)C)cc3)CC2)CC1` (centres unmarked) [Molecule 4PP-18, Methyl 4-(4-(4-(tert-butyl)phenyl)piperidin-1-yl)cyclohexane-1-carboxylate] the “anti-tubercular activity (in words)” value was “loss in activity” and the MIC [1] was > 20 µM.
For `CC(C)(C)c1ccc(C2CCN(C3CCC(C(=O)O)CC3)CC2)cc1` (centres unmarked) [Molecule 4PP-19, 4-(4-(4-(tert-Butyl)phenyl)piperidin-1-yl)cyclohexane-1-carboxylic acid], the “anti-tubercular activity (in words)” value was “loss in activity” and the MIC [1] was > 20 µM.
In the case of `CC(C)(C)c1ccc(C2CCN(C3CCC(=O)CC3)CC2)cc1` [Molecule 4PP-20, 4-[4-(4-t-Butyl-phenyl)-piperidin-1-yl]-cyclohexanone], the “anti-tubercular activity (in words)” value is reported as “loss in activity” and the MIC [1] is reported as > 20 µM.
In the case of `CN(C)C1CCC(N2CCC(c3ccccc3)CC2)CC1` (centres unmarked) [Molecule 4PP-21, N,N-dimethyl-4-(4-phenylpiperidin-1-yl)cyclohexan-1-amine], the “anti-tubercular activity (in words)” value is reported as “loss of activity” and the MIC [1] is reported as > 20 µM.
With `COC(=O)C1CCC(N2CCC(c3ccccc3)CC2)CC1` (centres unmarked) [Molecule 4PP-22, Methyl 4-(4-phenylpiperidin-1-yl)cyclohexane-1-carboxylate] the “anti-tubercular activity (in words)” value was “loss of activity” and the MIC [1] was > 20 µM.
In the case of `OC1CCC(N2CCC(c3ccccc3)CC2)CC1` (centres unmarked) [Molecule 4PP-23, 4-(4-Phenylpiperidin-1-yl)cyclohexan-1-ol], the “anti-tubercular activity (in words)” value is reported as “loss of activity” and the MIC [1] is reported as > 20 µM.
In the case of `CC(C)(C)c1ccc(C2CCN(C3CCOCC3)CC2)cc1` [Molecule 4PP-24, 4-(4-(tert-Butyl)phenyl)-1-(tetrahydro-2H-pyran-4-yl)piperidine], the MIC [1] is reported as > 20 µM and the MIC [2] is reported as > 20 µM.
For `CN1CCC(N2CCC(c3ccc(C(C)(C)C)cc3)CC2)CC1` [Molecule 4PP-25, 4-(4-(tert-Butyl)phenyl)-1'-methyl-1,4'-bipiperidine], the MIC [1] was > 20 µM and the MIC [2] was > 20 µM.
`c1ccc(C2CCN(C3CCOCC3)CC2)cc1` [Molecule 4PP-26, 4-Phenyl-1-(tetrahydro-2H-pyran-4-yl)piperidine] was tested, and the MIC [1] was > 20 µM and the MIC [2] was > 20 µM.
In the case of `CN1CCC(N2CCC(c3ccccc3)CC2)CC1` [Molecule 4PP-27, 1'-Methyl-4-phenyl-1,4'-bipiperidine], the MIC [1] is reported as > 20 µM and the MIC [2] is reported as > 20 µM.
`Brc1cccc(C2CCN(CC3CCCCC3)CC2)c1` [Molecule 4PP-28, 4-(3-Bromophenyl)-1-(cyclohexylmethyl)piperidine; 2,2,2-trifluoroacetic acid] was tested, and the MIC [1] was 2.8 ± 0.7 µM (≈ 0.942 µg/mL) and the MIC [2] was 2.8 µM (≈ 0.942 µg/mL).
For `Clc1cccc(C2CCN(CC3CCCCC3)CC2)c1` [Molecule 4PP-29, 4-(3-Chlorophenyl)-1-(cyclohexylmethyl)piperidine; 2,2,2-trifluoroacetic acid], the MIC [1] was 4.1 µM (≈ 1.2 µg/mL) and the MIC [2] was 4.1 µM (≈ 1.2 µg/mL).
With `N#Cc1ccc(C2CCN(CC3CCCCC3)CC2)cc1.O=C(O)C(F)(F)F` [Molecule 4PP-30, 4-[1-(Cyclohexylmethyl)-4-piperidyl]benzonitrile; 2,2,2-trifluoroacetic acid] the “anti-tubercular activity (in words)” value was “inactive” and the MIC [1] was > 20 µM.
`O=C(O)C(F)(F)F.c1ccc2c(C3CCN(CC4CCCCC4)CC3)cccc2c1` [Molecule 4PP-31, 1-(Cyclohexylmethyl)-4-(1-naphthyl)piperidine; 2,2,2-trifluoroacetic acid] gave an IC90 (Mycobacterium tuberculosis) of 2.7 µM, an MIC [1] of 2.7 ± 2.4 µM and an MIC [2] of 2.7 µM.
`C1=CC2(CCN(CC3CCCCC3)CC2)c2ccccc21` [Molecule 4PP-35, 1'-(Cyclohexylmethyl)spiro[indene-1,4'-piperidine]; 2,2,2-trifluoroacetic acid] gave an MIC [1] of 6.3 ± 0.1 µM (≈ 1.77 µg/mL) and an MIC [2] of 6.3 µM (≈ 1.77 µg/mL).
With `CC(=O)C1(c2ccccc2)CCN(CC2CCCCC2)CC1` [Molecule 4PP-36, 1-[1-(Cyclohexylmethyl)-4-phenyl-4-piperidyl]ethanone] the MIC [1] was > 20 µM.
In the case of `N#CC1(c2ccccc2)CCN(CC2CCCCC2)CC1` [Molecule 4PP-37, 1-(Cyclohexylmethyl)-4-phenyl-piperidine-4-carbonitrile; 2,2,2-trifluoroacetic acid], the MIC [1] is reported as > 20 µM.
In the case of `CC(=O)NCC1(c2ccccc2)CCN(CC2CCCCC2)CC1` [Molecule 4PP-38, N-[[1-(Cyclohexylmethyl)-4-phenyl-4-piperidyl]methyl]acetamide; 2,2,2-trifluoroacetic acid], the MIC [1] is reported as > 20 µM.
For `COC(=O)C1(c2ccccc2)CCN(CC2CCCCC2)CC1` [Molecule 4PP-39, Methyl 1-(cyclohexylmethyl)-4-phenyl-piperidine-4-carboxylate; 2,2,2-trifluoroacetic acid], the MIC [1] was > 20 µM.
For `OCC1(c2ccccc2)CCN(CC2CCCCC2)CC1` [Molecule 4PP-40, [1-(Cyclohexylmethyl)-4-phenyl-4-piperidyl]methanol; 2,2,2-trifluoroacetic acid], the MIC [1] was > 20 µM.
For `c1ccc(C2CCN(Cc3ccc4c(c3)OCO4)CC2)cc1` [Molecule 4PP-42, 1-(Benzo[d][1,3]dioxol-5-ylmethyl)-4-phenylpiperidine], the “anti-tubercular activity (in words)” value was “inactive” and the MIC [1] was > 20 µM.
`CC(C)(C)CC(C)(C)N1CCC(c2ccc(C(C)(C)C)cc2)CC1` [Molecule 4PP-43, 4-(4-t-Butyl-phenyl)-1-(1,1,3,3-tetramethyl-butyl)-piperidine] was tested, and the MIC was 5.2 ± 1.9 µM (≈ 1.71 µg/mL) and the MIC [1] was 5.9 µM (≈ 1.94 µg/mL).
`CC(C)(C)CC(C)(C)N1CCC(c2ccccc2)CC1` [Molecule 4PP-44, 4-Phenyl-1-(1,1,3,3-tetramethyl-butyl)-piperidine] showed an IC90 (Mycobacterium tuberculosis) of 5.2 µM, an MIC [1] of 5.2 ± 5 µM (≈ 1.42 µg/mL) and an MIC [2] of 5.2 µM (≈ 1.42 µg/mL).
With `CC(C)(C)CC(C)(C)N1CC=C(c2c[nH]c3ncccc23)CC1` [Molecule 4PP-45, 3-(1-(2,4,4-Trimethylpentan-2-yl)-1,2,3,6-tetrahydropyridin-4-yl)-1H-pyrrolo[2,3-b]pyridine] the “anti-tubercular activity (in words)” value was “inactive” and the MIC [1] was > 20 µM.
For `CC(C)(C)CC(C)(C)N1CCC(c2c[nH]c3ncccc23)CC1` [Molecule 4PP-46, 3-(1-(2,4,4-Trimethylpentan-2-yl)piperidin-4-yl)-1H-pyrrolo[2,3-b]pyridine], the “anti-tubercular activity (in words)” value was “inactive” and the MIC [1] was > 20 µM.

Reference: publication PMC9435431, “Novel chemical entities inhibiting Mycobacterium tuberculosis growth identified by phenotypic high-throughput screening” (Scientific Reports, 2022)
